Values of other authors in patent US9474524B2, “Packaged antimicrobial medical device having improved shelf life and method of preparing same” (Ethicon, Inc., priority 2002, dated 2016).

System: S. aureus
Conditions: suitable growth medium; Bhargava, H. et al, American Journal of Infection Control, June 1996

In the case of `Oc1cc(Cl)ccc1Oc1ccc(Cl)cc1Cl` [2,4,4′-trichloro-2′-hydroxydiphenyl ether], the “minimum inhibitory concentration (MIC) against S. aureus” value is listed as 0.01 ppm.
